The record followed here is PMC11574021, “CEP192 localises mitotic Aurora-A activity by priming its interaction with TPX2” (The EMBO Journal, 2024).

What all share (type): cell-based, Homo sapiens
Assay [1] deals with Aurora-A-pT288 in U251 cells. As to the kind of experiment: Western blot densitometry of Aurora-A-pT288, mitotic U251 cells. Conditions: mitotic U251 (and RPE1) lysates, siRNA 48 h, in words. The method, then:
For western blotting analysis of mitotic lysates, cells were synchronised in mitosis with 10 µM S-Trityl-L-cysteine (STLC, Bio-Techne, 2191-50), an Eg5 inhibitor, for 20 h prior to collecting by mitotic shake-off. For measuring monopolar spindle diameter and counting centriolar foci by immunofluorescence, cells were treated with 10 µM STLC for 1 h and 4 h prior to fixation, respectively.
(§1) As noted in the figures, the following drugs were incubated with cells for 30 min at 37 °C: Aurora-B-i ZM447439 2 µM [10 mM], PLK1-I BI2536 1 µM [10 mM] and Aurora-A-i MLN8237 [5 mM] was used at 250 and 500 nM in U251 and RPE1 cells, respectively. Drugs were resuspended in DMSO to the stock concentrations indicated in square brackets. BI2536 (HY-50698), MLN8237 (HY-10971) and ZM447439 (HY-10128) were all purchased from MedChemExpress. For western blotting, a 20-min pre-treatment with proteasome inhibitor (20 µM MG-132, MerckMillipore, 47490 [20 mM]) was required prior to the addition of DMSO control or kinase inhibitors. This prevented mitotic exit as a consequence of checkpoint override following Aurora-A and Aurora-B inhibitor addition.
Cells were lysed on ice for 30 min in lysis buffer (50 mM tris pH 8.0, 300 mM NaCl, 0.2%(v/v) NP-40, 10%(v/v) glycerol, protease inhibitor cocktail C, phosphatase inhibitor cocktail 3 (Sigma, 1:200 dilution), 100 nM okadaic acid (Enzo, ALX-350-003-C100)). Lysates were then centrifuged at 14,000 × g, 15 min, 4 °C, the supernatants were transferred to a fresh tube, and the pellet was discarded. Protein concentrations were measured by Bradford assay using Protein Assay Dye Reagent Concentrate (Bio-Rad Laboratories, 5000006). NuPage LDS sample buffer, supplemented with NuPAGE sample reducing agent (Invitrogen) were added prior to boiling for 10 min at 90 °C. […]
Densitometric quantification of western blots was also performed in ImageJ. Intensity was measured in a rectangular region of interest (ROI) around each band. […] An adjacent region was also measured to account for background intensity.
(Immunoblotting shows a protein as a band on a membrane.)

For assay [2], the system named is LATS2-pS83 in U251 cells. As to the kind of experiment: Immunofluorescence, LATS2-pS83 spindle pole signal intensity, U251. Conditions: for centrosomal LATS2-pS83 signal: U251, siRNA 48 h or Aurora-A inhibitor 30 min (250 nM), immunofluorescence. The method, then: as §1
(§2) siRNA depletion was carried out by reverse transfection using oligofectamine (Thermo Scientific, 12252011) and lipofectamine RNAiMax (Thermo Scientific, 13778075), according to the manufacturer’s instructions, for U251 and RPE1 cells, respectively. For immunofluorescence, 1 × 10^5 cells were seeded in six-well plates and simultaneously transfected with 60 pmol siRNA duplex and 3 µl transfection reagent diluted in 200 µl Opti-MEM serum-free medium. Growth medium was added to a final volume of 2 ml. For western blotting, 1 × 10^6 cells were seeded in 10 cm dishes and transfected with 300 pmol siRNA duplex and 15 µl transfection reagent diluted in 1000 µl Opti-MEM. Growth medium was added to a final volume of 10 ml. Cells were incubated with siRNA for 48 h prior to fixation or harvesting. As a negative control (siControl) Silencer select negative control No.1 siRNA was transfected as above. For TACC3 depletion, where two siRNA duplexes were used, 40 pmol of each was transfected per well.
For siRNA depletion, 1 × 10^5 cells were seeded in six-well plates and transfected as described above for 48 h prior to fixation. For all other experiments, 2.5 × 10^5 cells were seeded in six-well plates and grown for 24 h before fixation. All cells were grown on 12 mm diameter glass coverslips (VWR, 631–1577). Cells in Fig. EV4A were fixed using 4% (wt/v) paraformaldehyde (PFA) in PBS for 12 min, followed by 10 min quenching in 50 mM NH4Cl in PBS and 5 min of permeabilization with 0.2% (v/v) Triton X-100 in PBS, all at room temperature. For centriole staining in Fig. EV4E, cells were fixed in pre-chilled methanol for 10 min at −20 °C, incubated in PBS for 10 min and then 5 min in 0.5% Triton-X-100, 0.5% Tween, 0.05% SDS in PBS (v/v). To observe centromere and kinetochore staining in Fig. 7C and Appendix Fig. S8A, cells were fixed with PTEMF buffer (20 mM PIPES pH 6.8, 0.2% (v/v) Triton X-100, 10 mM EGTA, 1 mM MgCl2, 4% PFA (wt/v) in PBS) for 12 min at room temperature. […]

In assay [3] the test system is PPP1CA-pT320, PRC1-pT481 and Histone-H3-pS10 in U251 cells. Kind of assay: Western blot, mitotic phosphorylations (PPP1CA-pT320, PRC1-pT481, Histone-H3-pS10), asynchronous U251. The conditions noted are these: asynchronous U251, siRNA 48 h. The method, then: Cells were lysed on ice for 30 min in lysis buffer (50 mM tris pH 8.0, 300 mM NaCl, 0.2%(v/v) NP-40, 10%(v/v) glycerol, protease inhibitor cocktail C, phosphatase inhibitor cocktail 3 (Sigma, 1:200 dilution), 100 nM okadaic acid (Enzo, ALX-350-003-C100)). Lysates were then centrifuged at 14,000 × g, 15 min, 4 °C, the supernatants were transferred to a fresh tube, and the pellet was discarded. Protein concentrations were measured by Bradford assay using Protein Assay Dye Reagent Concentrate (Bio-Rad Laboratories, 5000006). NuPage LDS sample buffer, supplemented with NuPAGE sample reducing agent (Invitrogen) were added prior to boiling for 10 min at 90 °C. Equal amounts of protein, between 8–20 µg/lane, were loaded into pre-cast 4–12% Bis-Tris gels (Invitrogen, NP0322BOX) and proteins separated in 1x MOPS buffer (Invitrogen) and transferred to nitrocellulose membrane (0.45 µM). Nitrocellulose was then blocked in 5% milk (wt/v) in TBS, 0.1% Tween (v/v) (TBST) for 1 h. Primary and secondary antibodies were diluted in 5% milk, TBST and incubated overnight at 4 °C or for 1 h at room temperature, respectively. Species-specific secondary antibodies conjugated to horseradish peroxidase (HRP) were used (anti-Mouse, Cytiva NA931V; anti-Rabbit, Cytiva NA934; anti-Sheep, Jackson 713-035-003). Membranes were washed for 1 h in TBST, changing the buffer five times, after each antibody incubation.
as §2, with “Growth medium was added to a final volume of 10 ml. Cells were incubated with siRNA for 48 h prior to fixation or harvesting. As a negative control (siControl) Silencer select negative control No.1 siRNA was transfected as above. For TACC3 depletion, where two siRNA duplexes were used, 40 pmol of each was transfected per well.” left out

For assay [4], the system named is TACC3 in RPE1 p53-/- cells. As to the kind of experiment: Immunofluorescence, TACC3 spindle signal intensity, RPE1 p53-/-. Conditions: Aurora-A inhibitor 30 min or siRNA 48 h. The method, then: as §1
siRNA depletion was carried out by reverse transfection using oligofectamine (Thermo Scientific, 12252011) and lipofectamine RNAiMax (Thermo Scientific, 13778075), according to the manufacturer’s instructions, for U251 and RPE1 cells, respectively. For immunofluorescence, 1 × 10^5 cells were seeded in six-well plates and simultaneously transfected with 60 pmol siRNA duplex and 3 µl transfection reagent diluted in 200 µl Opti-MEM serum-free medium. Growth medium was added to a final volume of 2 ml. […]

For the compound 5′-CAAACAACUUGGAAAUCGAtt-3′ [siCEP192], the “activation loop phosphorylation (pT288) of Aurora-A in mitotic cell lysates” value in assay [1] is reported as “comparable reduction in pT288 Aurora-A levels to that of TPX2”. The “centrosomal LATS2-pS83 signal” value in assay [2] is listed as “reducing LATS2 phosphorylation”. Moreover, the “mitotic phosphorylations (PPP1CA-pT320, PRC1-pT481, Histone-H3-pS10)” value in assay [3] is “increased levels of mitotic phosphorylations”.
Regarding `COc1cc(Nc2ncc3c(n2)-c2ccc(Cl)cc2C(c2c(F)cccc2OC)=NC3)ccc1C(=O)O` [Alisertib], in assay [2] (U251, Aurora-A inhibition 30 min, authors' response to referees), the “reduction of p-LATS2 (pS83) intensity” value is over 80%. In addition, in assay [2], the “centrosomal LATS2-pS83 signal” value is reported as “obliterated”. In addition, the “spindle recruitment of TACC3” value in assay [4] is “abrogated spindle recruitment of TACC3”.
In the case of 5′-CGGUAGUGAUAAAAGCUCAtt-3′ [siTPX2], the “activation loop phosphorylation (pT288) of Aurora-A in mitotic cell lysates” value in assay [1] is “strongly reduced activation loop phosphorylation (pT288) of Aurora-A”. Besides, the “centrosomal LATS2-pS83 signal” value in assay [2] is on record as “reducing LATS2 phosphorylation”. Moreover, the “mitotic phosphorylations (PPP1CA-pT320, PRC1-pT481, Histone-H3-pS10)” value in assay [3] was “increased levels of mitotic phosphorylations”. Besides, the “spindle recruitment of TACC3” value in assay [4] is listed as “fully prevented both spindle recruitment of TACC3”.
